The test has as its system Plasmodium berghei. As to the kind of experiment: Luciferase/luciferin-expressing antifolate-resistant parasites were used to infect a culture of HepG2 cells that were pre-incubated with compounds. Infected hepatocytes emit light due to the luciferase reaction. Assay results are presented as the percent inhibition of light emission compared to control. […]. It counts as functional. The conditions noted are these: sporozoite; for IC90: read-out: LUCIFERASE INFECTION ASSAY - IC90.

[1] abbreviates: read-out: LUCIFERASE INFECTION ASSAY - IC50.

Bounds are passed on as bounds.

As usually defined, the IC50 is the concentration needed to halve the response being measured. For orientation: IC90 means the concentration needed for an effect of 90%. Turning to `CCc1ccc(CNCc2ccc3c(c2)OCO3)cc1`, the IC90 was above 12.3 µM. The IC50 under setting [1] was above 12.3 µM.

Regarding `CCOC(=O)C1C(C)=NC2=C(C(=O)CC(c3ccc(F)cc3)C2)C1c1ccccc1C(F)(F)F` (centres undefined), the IC90 was above 6.97 µM. Moreover, under “FFLUC_HILL_SLOPE 9.32, FFLUC_R_SQUARED 0.536, HEPG2TOX_HILL_SLOPE 7.97, HEPG2TOX_R_SQUARED 0.882, PBLUC_HILL_SLOPE 14, PBLUC_R_SQUARED 0.0949, read-out: LUCIFERASE INFECTION ASSAY - IC50”, the IC50 amounted to 6.64 µM.

On to `CCCc1c(O)nc2ccc(C)cc2c1C`, for which the IC90 was above 15.3 µM. Under “HEPG2TOX_HILL_SLOPE 1.25, HEPG2TOX_R_SQUARED 0.942, PBLUC_HILL_SLOPE 1.62, PBLUC_R_SQUARED 0.0626, read-out: LUCIFERASE INFECTION ASSAY - IC50”, the IC50 was 11.3 µM.

Turning to `CC(C)CN(C(=O)c1ccc(N2CCCC2)c([N+](=O)[O-])c1)c1nc2ccccc2s1`, the IC90 was determined as 0.595 µM. Besides, where the note is “FFLUC_HILL_SLOPE 0.859, FFLUC_R_SQUARED 0.184, HEPG2TOX_HILL_SLOPE 0.259, HEPG2TOX_R_SQUARED 0.321, PBLUC_HILL_SLOPE 3.83, PBLUC_R_SQUARED 0.838, read-out: LUCIFERASE INFECTION ASSAY - IC50”, the IC50 is 0.336 µM.

`O=c1c2c(-c3ccccc3)csc2nc2n1CC/C2=C\c1cccc(C(F)(F)F)c1`: the IC90 is above 10 µM. Also, the IC50 (FFLUC_HILL_SLOPE 50.3, FFLUC_R_SQUARED 0.583, read-out: LUCIFERASE INFECTION ASSAY - IC50) is above 10 µM.

Consider `CN(Cc1nc2ccccc2[nH]1)c1nccc(C(F)(F)F)n1`, for which the IC90 was above 10 µM. In addition, under setting [1], the IC50 was above 10 µM.

Regarding `Cn1nc(C(=O)NCC(c2cccs2)N2CCCC2)c2ccccc2c1=O` (centres undefined), the IC90 was above 10 µM. Further, the IC50 under setting [1] was above 10 µM.

In the case of `CCn1c2ccccc2c2cc(N)ccc21`, the IC90 is above 10 µM. Moreover, the IC50 under setting [1] was above 10 µM.

For `CCC(C)(C)NC(=O)CSC(c1ccc(F)cc1)c1ccc(F)cc1`, the IC90 is above 10 µM. In addition, the IC50 under setting [1] was above 10 µM.

For the molecule `CCOc1cccc(-c2cn3c(-c4ccc(Cl)cc4)cnc3cn2)c1`, the IC90 was above 9.43 µM. Under setting [1], the IC50 was 8.98 µM.

`CC(C)(C)c1cc(NC(=O)Nc2ccc(C#N)cc2)n(-c2ccccc2)n1`: the IC90 turned out to be 0.0487 µM. Further, under “PBLUC_HILL_SLOPE 3.93, PBLUC_R_SQUARED 0.959, read-out: LUCIFERASE INFECTION ASSAY - IC50”, the IC50 came out at 0.0279 µM.

Take `CN(C)CCNC(=O)c1ccc(-c2cc(-c3cc(F)c(F)c(F)c3)cnc2N)cc1`: the IC90 is above 7.96 µM. Further, for the setting “PBLUC_HILL_SLOPE 12.1, PBLUC_R_SQUARED 0.329, read-out: LUCIFERASE INFECTION ASSAY - IC50”, the IC50 is 7.43 µM.

`Cc1ccc(S(=O)(=O)Nc2ccccc2-c2nnc(-c3ccc(C(C)(C)C)cc3)o2)cc1`: the IC90 was above 7.37 µM. The IC50 (HEPG2TOX_HILL_SLOPE 0.544, HEPG2TOX_R_SQUARED 0.0439, read-out: LUCIFERASE INFECTION ASSAY - IC50) is above 7.37 µM.

For `Cc1cc(C(=O)C(C)OC(=O)CCn2cnc3c(cnn3C)c2=O)c(C)n1-c1ccc(Cl)cc1` (centres undefined), the IC90 was above 10 µM. Also, where the note is “HEPG2TOX_HILL_SLOPE 12.8, HEPG2TOX_R_SQUARED 0.861, read-out: LUCIFERASE INFECTION ASSAY - IC50”, the IC50 is above 10 µM.

Regarding `CC(=O)CSc1nnc(-c2ccc(C(C)(C)C)cc2)n1-c1ccc(Cl)cc1`, the IC90 is above 8.25 µM. Moreover, the IC50 (PBLUC_HILL_SLOPE 12.6, PBLUC_R_SQUARED 0.0257, read-out: LUCIFERASE INFECTION ASSAY - IC50) was 7.82 µM.

Take `CCOC(=O)c1sc(N)c(C#N)c1CSc1nnc(-c2ccncc2)n1-c1ccc(CC)cc1`: the IC90 is above 10 µM. Further, the IC50 under setting [1] was above 10 µM.

With `CC(C)N(C(=O)CSc1nnnn1C)c1ccc(Nc2ccccc2)cc1`, the IC90 was above 10 µM. For the same molecule, the IC50 (PBLUC_HILL_SLOPE 2.1, PBLUC_R_SQUARED 0.364, read-out: LUCIFERASE INFECTION ASSAY - IC50) is above 10 µM.

For `CCOc1ccc(NC(=S)N/N=C/c2cc(Cl)cc([N+](=O)[O-])c2O)cc1`, the IC90 was above 10 µM. For the same molecule, under “HEPG2TOX_HILL_SLOPE 8.71, HEPG2TOX_R_SQUARED 0.133, PBLUC_HILL_SLOPE 2.29, PBLUC_R_SQUARED 0.38, read-out: LUCIFERASE INFECTION ASSAY - IC50”, the IC50 turned out to be 6.7 µM.

Consider `Cc1csc(=O)n1CC(=O)Nc1cccc2ccccc12`, for which the IC90 is above 10 µM. Moreover, the IC50 under setting [1] is above 10 µM.

As to `Cn1c(CSc2nc3ccccc3s2)nn(CN2CCCc3ncccc32)c1=S`, the IC90 is above 10 µM. In addition, under setting [1], the IC50 was above 10 µM.

With `O=C(Nc1cc(-c2cccs2)nn1-c1ccc(I)cc1)C1CCC1`, the IC90 was above 7.34 µM. For the setting “PBLUC_HILL_SLOPE 12.7, PBLUC_R_SQUARED 0.261, read-out: LUCIFERASE INFECTION ASSAY - IC50”, the IC50 worked out at 6.21 µM.

Turning to `Cn1ncc2c(NCc3ccc(-c4ccc(Cl)cc4)o3)ncnc21`, the IC90 worked out at 0.56 µM. Further, the IC50 (HEPG2TOX_HILL_SLOPE 0.521, HEPG2TOX_R_SQUARED 0.423, PBLUC_HILL_SLOPE 3.64, PBLUC_R_SQUARED 0.888, read-out: LUCIFERASE INFECTION ASSAY - IC50) was 0.306 µM.

With `O=C(Nc1ccc(Cl)c(Cl)c1)Nc1ccc(Cl)c(Cl)c1`, the IC90 came out at 1.35 µM. Moreover, the IC50 (HEPG2TOX_HILL_SLOPE 2.86, HEPG2TOX_R_SQUARED 0.877, PBLUC_HILL_SLOPE 1.38, PBLUC_R_SQUARED 0.733, read-out: LUCIFERASE INFECTION ASSAY - IC50) turned out to be 0.275 µM.

In the case of `COc1ccc(CNc2ncnc3ccccc23)cc1`, the IC90 is above 10 µM. Also, the IC50 (PBLUC_HILL_SLOPE 1.65, PBLUC_R_SQUARED 0.126, read-out: LUCIFERASE INFECTION ASSAY - IC50) was found to be 3.67 µM.

As for `COc1ccc(-c2cnc3cnc(-c4cnn(C)c4)cn23)cn1`, the concentration for an effect of 90% (IC90) is above 10.8 µM. Further, the IC50 (PBLUC_HILL_SLOPE 3.07, PBLUC_R_SQUARED 0.552, read-out: LUCIFERASE INFECTION ASSAY - IC50) was 6.4 µM.

Take `CCOCCCNC(=O)/C(C#N)=C/c1ccc([N+](=O)[O-])o1`: the IC90 is above 10 µM. Also, the 50% inhibitory concentration (IC50) (PBLUC_HILL_SLOPE 1.42, PBLUC_R_SQUARED 0.135, read-out: LUCIFERASE INFECTION ASSAY - IC50) was above 10 µM.

As to `CC(Sc1nc(-c2ccccc2)c(-c2ccccc2)o1)C(=O)N1CCCC1` (centres undefined), the IC90 came to 1.48 µM. Besides, the IC50 (HEPG2TOX_HILL_SLOPE 2.22, HEPG2TOX_R_SQUARED 0.0759, PBLUC_HILL_SLOPE 15.7, PBLUC_R_SQUARED 0.556, read-out: LUCIFERASE INFECTION ASSAY - IC50) stood at 1.29 µM.

The record behind these values is ChEMBL document CHEMBL4483862, “Open-source discovery of chemical leads for next-generation chemoprotective antimalarials” (2018).
